# Data reported in the NIST ThermoML archive (doi:10.1021/je200195q).
# Numbers after ± are expanded uncertainties.
# Test: activity coefficient (dimensionless); of the first substance listed, at infinite dilution; xn = mol fraction of the nth substance listed
# Settings: 101 kPa, Liquid, Chromatography, x1 = 0
structure (smiles),measurement,setting,value
CCCC(C)=O [pentan-2-one] + CCCCCCCCCCn1cc[n+](CCCCCCCCCC)c1C.O=S(=O)([N-]S(=O)(=O)C(F)(F)F)C(F)(F)F,activity coefficient,323.1 K,0.397 ± 0.034
same,activity coefficient,333.15 K,0.404 ± 0.034
same,activity coefficient,343.15 K,0.407 ± 0.034
CCCC(C)=O [pentan-2-one] + CCCCCC[n+]1ccn(C)c1.FC(F)(F)C(F)(F)[P-](F)(F)(F)(C(F)(F)C(F)(F)F)C(F)(F)C(F)(F)F,activity coefficient,312.8 K,0.271 ± 0.03
same,activity coefficient,332.85 K,0.298 ± 0.031
same,activity coefficient,354.65 K,0.311 ± 0.031
CCCC(C)=O [pentan-2-one] + CCCCn1cc[n+](C)c1.O=S(=O)([N-]S(=O)(=O)C(F)(F)C(F)(F)F)C(F)(F)C(F)(F)F,activity coefficient,322.55 K,0.666 ± 0.045
same,activity coefficient,342.75 K,0.686 ± 0.046
same,activity coefficient,362.65 K,0.701 ± 0.047
CCCC(C)=O [pentan-2-one] + CCn1cc[n+](C)c1.CS(=O)(=O)[O-],activity coefficient,312.55 K,7.79 ± 0.53
same,activity coefficient,322.45 K,7.7 ± 0.53
same,activity coefficient,332.45 K,7.57 ± 0.52
CCC(=O)CC [pentan-3-one] + CCCCCCCCCCn1cc[n+](CCCCCCCCCC)c1C.O=S(=O)([N-]S(=O)(=O)C(F)(F)F)C(F)(F)F,activity coefficient,323.1 K,0.37 ± 0.03
same,activity coefficient,333.15 K,0.378 ± 0.033
same,activity coefficient,343.15 K,0.386 ± 0.033
CCC(=O)CC [pentan-3-one] + CCCCCC[n+]1ccn(C)c1.FC(F)(F)C(F)(F)[P-](F)(F)(F)(C(F)(F)C(F)(F)F)C(F)(F)C(F)(F)F,activity coefficient,312.8 K,0.236 ± 0.029
same,activity coefficient,332.85 K,0.28 ± 0.03
same,activity coefficient,354.65 K,0.301 ± 0.031
CCC(=O)CC [pentan-3-one] + CCCCn1cc[n+](C)c1.O=S(=O)([N-]S(=O)(=O)C(F)(F)C(F)(F)F)C(F)(F)C(F)(F)F,activity coefficient,322.55 K,0.624 ± 0.043
same,activity coefficient,342.75 K,0.656 ± 0.045
same,activity coefficient,362.65 K,0.695 ± 0.047
CCC(=O)CC [pentan-3-one] + CCn1cc[n+](C)c1.CS(=O)(=O)[O-],activity coefficient,312.55 K,7.58 ± 0.52
same,activity coefficient,322.45 K,7.45 ± 0.51
same,activity coefficient,332.45 K,7.37 ± 0.5
CCCO [propan-1-ol] + CCCCCCCCCCn1cc[n+](CCCCCCCCCC)c1C.O=S(=O)([N-]S(=O)(=O)C(F)(F)F)C(F)(F)F,activity coefficient,323.1 K,1.31 ± 0.085
same,activity coefficient,333.15 K,1.16 ± 0.074
same,activity coefficient,343.15 K,1.06 ± 0.067
CCCO [propan-1-ol] + CCCCCC[n+]1ccn(C)c1.FC(F)(F)C(F)(F)[P-](F)(F)(F)(C(F)(F)C(F)(F)F)C(F)(F)C(F)(F)F,activity coefficient,312.8 K,2.47 ± 0.17
same,activity coefficient,332.85 K,1.96 ± 0.13
same,activity coefficient,354.65 K,1.47 ± 0.096
CCCO [propan-1-ol] + CCCCn1cc[n+](C)c1.O=S(=O)([N-]S(=O)(=O)C(F)(F)C(F)(F)F)C(F)(F)C(F)(F)F,activity coefficient,322.55 K,1.99 ± 0.14
same,activity coefficient,342.75 K,1.62 ± 0.11
same,activity coefficient,362.65 K,1.35 ± 0.088
CCCO [propan-1-ol] + CCn1cc[n+](C)c1.CS(=O)(=O)[O-],activity coefficient,312.55 K,0.742 ± 0.049
same,activity coefficient,322.45 K,0.734 ± 0.049
same,activity coefficient,332.45 K,0.722 ± 0.048
CC(C)O [propan-2-ol] + CCCCCCCCCCn1cc[n+](CCCCCCCCCC)c1C.O=S(=O)([N-]S(=O)(=O)C(F)(F)F)C(F)(F)F,activity coefficient,323.1 K,1.27 ± 0.082
same,activity coefficient,333.15 K,1.14 ± 0.073
same,activity coefficient,343.15 K,1.03 ± 0.065
CC(C)O [propan-2-ol] + CCCCCC[n+]1ccn(C)c1.FC(F)(F)C(F)(F)[P-](F)(F)(F)(C(F)(F)C(F)(F)F)C(F)(F)C(F)(F)F,activity coefficient,312.8 K,2.06 ± 0.14
same,activity coefficient,332.85 K,1.62 ± 0.11
same,activity coefficient,354.65 K,1.26 ± 0.081
CC(C)O [propan-2-ol] + CCCCn1cc[n+](C)c1.O=S(=O)([N-]S(=O)(=O)C(F)(F)C(F)(F)F)C(F)(F)C(F)(F)F,activity coefficient,322.55 K,1.77 ± 0.12
same,activity coefficient,342.75 K,1.46 ± 0.096
same,activity coefficient,362.65 K,1.25 ± 0.08
CC(C)O [propan-2-ol] + CCn1cc[n+](C)c1.CS(=O)(=O)[O-],activity coefficient,312.55 K,0.924 ± 0.058
same,activity coefficient,322.45 K,0.907 ± 0.058
same,activity coefficient,332.45 K,0.877 ± 0.056
CCC=O [propanal] + CCCCCC[n+]1ccn(C)c1.FC(F)(F)C(F)(F)[P-](F)(F)(F)(C(F)(F)C(F)(F)F)C(F)(F)C(F)(F)F,activity coefficient,312.8 K,0.274 ± 0.03
same,activity coefficient,332.85 K,0.283 ± 0.03
same,activity coefficient,354.65 K,0.285 ± 0.031
CCC=O [propanal] + CCCCn1cc[n+](C)c1.O=S(=O)([N-]S(=O)(=O)C(F)(F)C(F)(F)F)C(F)(F)C(F)(F)F,activity coefficient,322.55 K,0.539 ± 0.039
same,activity coefficient,342.75 K,0.533 ± 0.039
same,activity coefficient,362.65 K,0.522 ± 0.039
CCC=O [propanal] + CCn1cc[n+](C)c1.CS(=O)(=O)[O-],activity coefficient,312.55 K,2.76 ± 0.19
same,activity coefficient,322.45 K,2.71 ± 0.18
same,activity coefficient,332.45 K,2.65 ± 0.18
c1ccncc1 [pyridine] + CCCCCCCCCCn1cc[n+](CCCCCCCCCC)c1C.O=S(=O)([N-]S(=O)(=O)C(F)(F)F)C(F)(F)F,activity coefficient,323.1 K,0.328 ± 0.032
same,activity coefficient,333.15 K,0.331 ± 0.032
same,activity coefficient,343.15 K,0.334 ± 0.032
c1ccncc1 [pyridine] + CCCCCC[n+]1ccn(C)c1.FC(F)(F)C(F)(F)[P-](F)(F)(F)(C(F)(F)C(F)(F)F)C(F)(F)C(F)(F)F,activity coefficient,312.8 K,0.302 ± 0.031
same,activity coefficient,332.85 K,0.326 ± 0.032
same,activity coefficient,354.65 K,0.331 ± 0.032
c1ccncc1 [pyridine] + CCCCn1cc[n+](C)c1.O=S(=O)([N-]S(=O)(=O)C(F)(F)C(F)(F)F)C(F)(F)C(F)(F)F,activity coefficient,322.55 K,0.386 ± 0.033
same,activity coefficient,342.75 K,0.429 ± 0.035
same,activity coefficient,362.65 K,0.45 ± 0.036
ClC(Cl)(Cl)Cl [tetrachloromethane] + CCCCCCCCCCn1cc[n+](CCCCCCCCCC)c1C.O=S(=O)([N-]S(=O)(=O)C(F)(F)F)C(F)(F)F,activity coefficient,323.1 K,0.776 ± 0.051
same,activity coefficient,333.15 K,0.777 ± 0.051
same,activity coefficient,343.15 K,0.777 ± 0.051
ClC(Cl)(Cl)Cl [tetrachloromethane] + CCCCCC[n+]1ccn(C)c1.FC(F)(F)C(F)(F)[P-](F)(F)(F)(C(F)(F)C(F)(F)F)C(F)(F)C(F)(F)F,activity coefficient,312.8 K,2.19 ± 0.15
same,activity coefficient,332.85 K,2.08 ± 0.14
same,activity coefficient,354.65 K,1.94 ± 0.13
ClC(Cl)(Cl)Cl [tetrachloromethane] + CCCCn1cc[n+](C)c1.O=S(=O)([N-]S(=O)(=O)C(F)(F)C(F)(F)F)C(F)(F)C(F)(F)F,activity coefficient,322.55 K,2.4 ± 0.16
same,activity coefficient,342.75 K,2.35 ± 0.16
same,activity coefficient,362.65 K,2.33 ± 0.16
ClC(Cl)(Cl)Cl [tetrachloromethane] + CCn1cc[n+](C)c1.CS(=O)(=O)[O-],activity coefficient,312.55 K,4.57 ± 0.31
same,activity coefficient,322.45 K,4.79 ± 0.33
same,activity coefficient,332.45 K,0.669 ± 0.045
CCCCCCCCCCCCCC [tetradecane] + CCCCn1cc[n+](C)c1.O=S(=O)([N-]S(=O)(=O)C(F)(F)C(F)(F)F)C(F)(F)C(F)(F)F,activity coefficient,322.55 K,153 ± 11
same,activity coefficient,342.75 K,113 ± 7.7
same,activity coefficient,362.65 K,91.5 ± 6.3
CCCCCCCCCCCCCC [tetradecane] + CCn1cc[n+](C)c1.CS(=O)(=O)[O-],activity coefficient,312.55 K,4070 ± 280
same,activity coefficient,322.45 K,4000 ± 280
same,activity coefficient,332.45 K,3830 ± 260
c1ccsc1 [thiophene] + CCCCCCCCCCn1cc[n+](CCCCCCCCCC)c1C.O=S(=O)([N-]S(=O)(=O)C(F)(F)F)C(F)(F)F,activity coefficient,323.1 K,0.422 ± 0.035
same,activity coefficient,333.15 K,0.423 ± 0.035
same,activity coefficient,343.15 K,0.424 ± 0.035
c1ccsc1 [thiophene] + CCCCCC[n+]1ccn(C)c1.FC(F)(F)C(F)(F)[P-](F)(F)(F)(C(F)(F)C(F)(F)F)C(F)(F)C(F)(F)F,activity coefficient,312.8 K,0.577 ± 0.041
same,activity coefficient,332.85 K,0.602 ± 0.042
same,activity coefficient,354.65 K,0.604 ± 0.042
c1ccsc1 [thiophene] + CCCCn1cc[n+](C)c1.O=S(=O)([N-]S(=O)(=O)C(F)(F)C(F)(F)F)C(F)(F)C(F)(F)F,activity coefficient,322.55 K,0.977 ± 0.061
same,activity coefficient,342.75 K,0.973 ± 0.061
same,activity coefficient,362.65 K,0.981 ± 0.062
c1ccsc1 [thiophene] + CCn1cc[n+](C)c1.CS(=O)(=O)[O-],activity coefficient,312.55 K,1.87 ± 0.13
same,activity coefficient,322.45 K,1.91 ± 0.13
same,activity coefficient,332.45 K,1.95 ± 0.13
Cc1ccccc1 [toluene] + CCCCCCCCCCn1cc[n+](CCCCCCCCCC)c1C.O=S(=O)([N-]S(=O)(=O)C(F)(F)F)C(F)(F)F,activity coefficient,323.1 K,0.512 ± 0.038
same,activity coefficient,333.15 K,0.52 ± 0.039
same,activity coefficient,343.15 K,0.527 ± 0.039
Cc1ccccc1 [toluene] + CCCCCC[n+]1ccn(C)c1.FC(F)(F)C(F)(F)[P-](F)(F)(F)(C(F)(F)C(F)(F)F)C(F)(F)C(F)(F)F,activity coefficient,312.8 K,0.674 ± 0.046
same,activity coefficient,332.85 K,0.727 ± 0.048
same,activity coefficient,354.65 K,0.753 ± 0.05
Cc1ccccc1 [toluene] + CCCCn1cc[n+](C)c1.O=S(=O)([N-]S(=O)(=O)C(F)(F)C(F)(F)F)C(F)(F)C(F)(F)F,activity coefficient,322.55 K,1.4 ± 0.091
same,activity coefficient,342.75 K,1.42 ± 0.093
same,activity coefficient,362.65 K,1.46 ± 0.096
ClC(Cl)Cl [trichloromethane] + CCCCCCCCCCn1cc[n+](CCCCCCCCCC)c1C.O=S(=O)([N-]S(=O)(=O)C(F)(F)F)C(F)(F)F,activity coefficient,323.1 K,0.374 ± 0.033
same,activity coefficient,333.15 K,0.395 ± 0.034
same,activity coefficient,343.15 K,0.402 ± 0.034
ClC(Cl)Cl [trichloromethane] + CCCCCC[n+]1ccn(C)c1.FC(F)(F)C(F)(F)[P-](F)(F)(F)(C(F)(F)C(F)(F)F)C(F)(F)C(F)(F)F,activity coefficient,312.8 K,1.09 ± 0.069
same,activity coefficient,332.85 K,1.09 ± 0.069
same,activity coefficient,354.65 K,1.05 ± 0.066
ClC(Cl)Cl [trichloromethane] + CCCCn1cc[n+](C)c1.O=S(=O)([N-]S(=O)(=O)C(F)(F)C(F)(F)F)C(F)(F)C(F)(F)F,activity coefficient,322.55 K,0.613 ± 0.043
same,activity coefficient,342.75 K,0.74 ± 0.049
same,activity coefficient,362.65 K,0.79 ± 0.051
ClC(Cl)Cl [trichloromethane] + CCn1cc[n+](C)c1.CS(=O)(=O)[O-],activity coefficient,312.55 K,0.563 ± 0.04
same,activity coefficient,322.45 K,0.479 ± 0.037
same,activity coefficient,332.45 K,1.42 ± 0.093
CCCCCCCCCCCCC [tridecane] + CCCCn1cc[n+](C)c1.O=S(=O)([N-]S(=O)(=O)C(F)(F)C(F)(F)F)C(F)(F)C(F)(F)F,activity coefficient,322.55 K,111 ± 7.6
same,activity coefficient,342.75 K,78.1 ± 5.3
same,activity coefficient,363.65 K,68.9 ± 4.7
CCCCCCCCCCCCC [tridecane] + CCn1cc[n+](C)c1.CS(=O)(=O)[O-],activity coefficient,312.55 K,3380 ± 230
same,activity coefficient,322.45 K,3280 ± 230
same,activity coefficient,332.45 K,3070 ± 210
CCN(CC)CC [triethylamine] + CCCCCCCCCCn1cc[n+](CCCCCCCCCC)c1C.O=S(=O)([N-]S(=O)(=O)C(F)(F)F)C(F)(F)F,activity coefficient,323.1 K,3.67 ± 0.25
same,activity coefficient,333.15 K,3.17 ± 0.22
same,activity coefficient,343.15 K,2.86 ± 0.2
